Laboratory results as given in US10196403B2, “Compounds and compositions and uses thereof” (Sunovion Pharmaceuticals Inc., priority 2016, dated 2019).
Read-outs that look alike come from different tables or passages of the source.

Test system: mice
Assay: Neuropharmacological Assay (SmartCube)
Type: in vivo
Conditions: for minimal effective dose: Mus musculus, read-out: POTENCY (minimal effective dose, MED); for AD: ADHD (SmartCube probability) / AG: analgesic (SmartCube probability) / AX: anxiolytic (SmartCube probability) / CE: cognitive enhancer (SmartCube probability) / DP: anti-depressant (SmartCube probability) / MS: mood stabilizer (SmartCube probability) / PS: anti-psychotic (SmartCube probability) / SD: sedative hypnotic (SmartCube probability) / UN: uncharacterized CNS activity (SmartCube probability): mice, i.p. 15 min before test, most efficacious dose(s) of 3 doses
How it was run: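 Compounds in NMP/PEG/propylene glycol given i.p. 15 min before automated video-based behavioral testing, at 3 doses; behavioral signature compared with a reference-compound database to give probability per drug class, reported at most efficacious dose. MED = dose (mpk) giving ≥50% total activity; doses typically 0.3–30 mpk.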

[1] = MED = dose having 50% or more total activity in SmartCube

CN(C)C[C@H]1OCCc2cccc(F)c21 [Example 84, (S)-1-(8-fluoroisochroman-1-yl)-N,N-dimethylmethanamine]
minimal effective dose [1]: < 3 mg/kg | AD: ADHD (SmartCube probability): + (LOQ≤ + <5%) | AG: analgesic (SmartCube probability): ++ (5%≤ ++ <25%) | AX: anxiolytic (SmartCube probability): ++ (5%≤ ++ <25%) | CE: cognitive enhancer (SmartCube probability): ++ (5%≤ ++ <25%) | DP: anti-depressant (SmartCube probability): ++ (5%≤ ++ <25%) | MS: mood stabilizer (SmartCube probability): + (LOQ≤ + <5%) | PS: anti-psychotic (SmartCube probability): ++ (5%≤ ++ <25%) | SD: sedative hypnotic (SmartCube probability): ++ (5%≤ ++ <25%) | UN: uncharacterized CNS activity (SmartCube probability): ++++ (50%≤ ++++)

CN(C)C[C@@H]1OCCc2cccc(F)c21 [Example 85, (R)-1-(8-fluoroisochroman-1-yl)-N,N-dimethylmethanamine]
minimal effective dose [1]: < 3 mg/kg | AD: ADHD (SmartCube probability): + (LOQ≤ + <5%) | AG: analgesic (SmartCube probability): + (LOQ≤ + <5%) | AX: anxiolytic (SmartCube probability): +++ (25%≤ +++ <50%) | CE: cognitive enhancer (SmartCube probability): ++ (5%≤ ++ <25%) | DP: anti-depressant (SmartCube probability): ++ (5%≤ ++ <25%) | MS: mood stabilizer (SmartCube probability): + (LOQ≤ + <5%) | PS: anti-psychotic (SmartCube probability): ++ (5%≤ ++ <25%) | SD: sedative hypnotic (SmartCube probability): ++ (5%≤ ++ <25%) | UN: uncharacterized CNS activity (SmartCube probability): +++ (25%≤ +++ <50%)

CCNC[C@H]1OCCc2cccc(F)c21 [Example 86, (S)-N-((8-fluoroisochroman-1-yl)methyl)ethanamine]
minimal effective dose [1]: 10 to 30 mg/kg | AD: ADHD (SmartCube probability): ++ (5%≤ ++ <25%) | AG: analgesic (SmartCube probability): + (LOQ≤ + <5%) | AX: anxiolytic (SmartCube probability): ++ (5%≤ ++ <25%) | CE: cognitive enhancer (SmartCube probability): ++ (5%≤ ++ <25%) | DP: anti-depressant (SmartCube probability): ++ (5%≤ ++ <25%) | MS: mood stabilizer (SmartCube probability): + (LOQ≤ + <5%) | PS: anti-psychotic (SmartCube probability): ++ (5%≤ ++ <25%) | SD: sedative hypnotic (SmartCube probability): +++ (25%≤ +++ <50%) | UN: uncharacterized CNS activity (SmartCube probability): + (LOQ≤ + <5%)

CCNC[C@@H]1OCCc2cccc(F)c21 [Example 87, (R)-N-((8-fluoroisochroman-1-yl)methyl)ethanamine]
minimal effective dose [1]: < 3 mg/kg | AD: ADHD (SmartCube probability): + (LOQ≤ + <5%) | AG: analgesic (SmartCube probability): ++ (5%≤ ++ <25%) | AX: anxiolytic (SmartCube probability): ++ (5%≤ ++ <25%) | CE: cognitive enhancer (SmartCube probability): + (LOQ≤ + <5%) | DP: anti-depressant (SmartCube probability): ++ (5%≤ ++ <25%) | MS: mood stabilizer (SmartCube probability): + (LOQ≤ + <5%) | PS: anti-psychotic (SmartCube probability): ++ (5%≤ ++ <25%) | SD: sedative hypnotic (SmartCube probability): + (LOQ≤ + <5%) | UN: uncharacterized CNS activity (SmartCube probability): ++++ (50%≤ ++++)

CNC[C@H]1OCc2c(Cl)cccc21 [Example 92, (S)-1-(4-chloro-1,3-dihydroisobenzofuran-1-yl)-N-methylmethanamine]
minimal effective dose [1]: 10 to 30 mg/kg | AD: ADHD (SmartCube probability): + (LOQ≤ + <5%) | AG: analgesic (SmartCube probability): ++ (5%≤ ++ <25%) | AX: anxiolytic (SmartCube probability): ++ (5%≤ ++ <25%) | CE: cognitive enhancer (SmartCube probability): ++ (5%≤ ++ <25%) | DP: anti-depressant (SmartCube probability): ++ (5%≤ ++ <25%) | MS: mood stabilizer (SmartCube probability): + (LOQ≤ + <5%) | PS: anti-psychotic (SmartCube probability): + (LOQ≤ + <5%) | SD: sedative hypnotic (SmartCube probability): ++ (5%≤ ++ <25%) | UN: uncharacterized CNS activity (SmartCube probability): +++ (25%≤ +++ <50%)

CNC[C@@H]1OCc2c(Cl)cccc21 [Example 93, (R)-1-(4-chloro-1,3-dihydroisobenzofuran-1-yl)-N-methyl-methanamine]
minimal effective dose [1]: < 3 mg/kg | AD: ADHD (SmartCube probability): +++ (25%≤ +++ <50%) | AG: analgesic (SmartCube probability): ++ (5%≤ ++ <25%) | AX: anxiolytic (SmartCube probability): +++ (25%≤ +++ <50%) | CE: cognitive enhancer (SmartCube probability): ++ (5%≤ ++ <25%) | DP: anti-depressant (SmartCube probability): ++ (5%≤ ++ <25%) | MS: mood stabilizer (SmartCube probability): + (LOQ≤ + <5%) | PS: anti-psychotic (SmartCube probability): + (LOQ≤ + <5%) | SD: sedative hypnotic (SmartCube probability): ++ (5%≤ ++ <25%) | UN: uncharacterized CNS activity (SmartCube probability): ++++ (50%≤ ++++)

Fc1cccc2c1[C@@H](CNC1CCC1)OCC2 [Example 96, (S)-N-((8-fluoroisochroman-1-yl)methyl)cyclobutanamine]
minimal effective dose: 10 to 30 mg/kg | AD: ADHD (SmartCube probability): + (LOQ≤ + <5%) | AG: analgesic (SmartCube probability): + (LOQ≤ + <5%) | AX: anxiolytic (SmartCube probability): + (LOQ≤ + <5%) | CE: cognitive enhancer (SmartCube probability): + (LOQ≤ + <5%) | DP: anti-depressant (SmartCube probability): + (LOQ≤ + <5%) | MS: mood stabilizer (SmartCube probability): + (LOQ≤ + <5%) | PS: anti-psychotic (SmartCube probability): + (LOQ≤ + <5%) | SD: sedative hypnotic (SmartCube probability): +++ (25%≤ +++ <50%) | UN: uncharacterized CNS activity (SmartCube probability): + (LOQ≤ + <5%)

Fc1cccc2c1[C@H](CNC1CCC1)OCC2 [Example 97, (R)-N-((8-fluoroisochroman-1-yl)methyl)cyclobutanamine]
minimal effective dose: 3 to 10 mg/kg | AD: ADHD (SmartCube probability): ++ (5%≤ ++ <25%) | AG: analgesic (SmartCube probability): + (LOQ≤ + <5%) | AX: anxiolytic (SmartCube probability): ++ (5%≤ ++ <25%) | CE: cognitive enhancer (SmartCube probability): + (LOQ≤ + <5%) | DP: anti-depressant (SmartCube probability): +++ (25%≤ +++ <50%) | MS: mood stabilizer (SmartCube probability): + (LOQ≤ + <5%) | PS: anti-psychotic (SmartCube probability): ++ (5%≤ ++ <25%) | SD: sedative hypnotic (SmartCube probability): + (LOQ≤ + <5%) | UN: uncharacterized CNS activity (SmartCube probability): +++ (25%≤ +++ <50%)

CNC[C@H]1OC[C@@H](O)c2cccc(F)c21 [Example 98, (1S,4S)-8-fluoro-1-((methylamino)methyl)isochroman-4-ol]
minimal effective dose [1]: > 30 mg/kg | AD: ADHD (SmartCube probability): + (LOQ≤ + <5%) | AG: analgesic (SmartCube probability): + (LOQ≤ + <5%) | AX: anxiolytic (SmartCube probability): + (LOQ≤ + <5%) | CE: cognitive enhancer (SmartCube probability): + (LOQ≤ + <5%) | DP: anti-depressant (SmartCube probability): + (LOQ≤ + <5%) | MS: mood stabilizer (SmartCube probability): + (LOQ≤ + <5%) | PS: anti-psychotic (SmartCube probability): + (LOQ≤ + <5%) | SD: sedative hypnotic (SmartCube probability): + (LOQ≤ + <5%) | UN: uncharacterized CNS activity (SmartCube probability): + (LOQ≤ + <5%)

CNC[C@@H]1OC[C@H](O)c2cccc(F)c21 [Example 99, (1R,4R)-8-fluoro-1-((methylamino)methyl)isochroman-4-ol]
minimal effective dose [1]: 10 to 30 mg/kg | AD: ADHD (SmartCube probability): + (LOQ≤ + <5%) | AG: analgesic (SmartCube probability): + (LOQ≤ + <5%) | AX: anxiolytic (SmartCube probability): ++ (5%≤ ++ <25%) | CE: cognitive enhancer (SmartCube probability): + (LOQ≤ + <5%) | DP: anti-depressant (SmartCube probability): + (LOQ≤ + <5%) | MS: mood stabilizer (SmartCube probability): + (LOQ≤ + <5%) | PS: anti-psychotic (SmartCube probability): ++ (5%≤ ++ <25%) | SD: sedative hypnotic (SmartCube probability): ++ (5%≤ ++ <25%) | UN: uncharacterized CNS activity (SmartCube probability): +++ (25%≤ +++ <50%)

CNC[C@@H]1OCCc2ccc3c(c21)OC(F)(F)O3 [Example 101, (R)-1-(2,2-difluoro-6,9-dihydro-7H-[1,3]dioxolo[4,5-h]isochromen-9-yl)-N-methylmethanamine]
minimal effective dose [1]: 3 to 10 mg/kg | AD: ADHD (SmartCube probability): + (LOQ≤ + <5%) | AG: analgesic (SmartCube probability): +++ (25%≤ +++ <50%) | AX: anxiolytic (SmartCube probability): ++ (5%≤ ++ <25%) | CE: cognitive enhancer (SmartCube probability): ++ (5%≤ ++ <25%) | DP: anti-depressant (SmartCube probability): + (LOQ≤ + <5%) | MS: mood stabilizer (SmartCube probability): + (LOQ≤ + <5%) | PS: anti-psychotic (SmartCube probability): ++ (5%≤ ++ <25%) | SD: sedative hypnotic (SmartCube probability): + (LOQ≤ + <5%) | UN: uncharacterized CNS activity (SmartCube probability): + (LOQ≤ + <5%)

CNC[C@H]1OCCc2ccc3c(c21)OC(F)(F)O3 [Example 102, (S)-1-(2,2-difluoro-6,9-dihydro-7H-[1,3]dioxolo[4,5-h]isochromen-9-yl)-N-methylmethanamine]
minimal effective dose [1]: 10 to 30 mg/kg | AD: ADHD (SmartCube probability): + (LOQ≤ + <5%) | AG: analgesic (SmartCube probability): ++ (5%≤ ++ <25%) | AX: anxiolytic (SmartCube probability): ++ (5%≤ ++ <25%) | CE: cognitive enhancer (SmartCube probability): + (LOQ≤ + <5%) | DP: anti-depressant (SmartCube probability): ++ (5%≤ ++ <25%) | MS: mood stabilizer (SmartCube probability): + (LOQ≤ + <5%) | PS: anti-psychotic (SmartCube probability): + (LOQ≤ + <5%) | SD: sedative hypnotic (SmartCube probability): + (LOQ≤ + <5%) | UN: uncharacterized CNS activity (SmartCube probability): +++ (25%≤ +++ <50%)

CNC[C@@H]1OCCc2ccc3c(c21)OCC3 [Example 105, (R)-N-methyl-1-(2,3,6,9-tetrahydro-7H-furo[3,2-h]isochromen-9-yl)methanamine]
minimal effective dose [1]: < 3 mg/kg | AD: ADHD (SmartCube probability): + (LOQ≤ + <5%) | AG: analgesic (SmartCube probability): + (LOQ≤ + <5%) | AX: anxiolytic (SmartCube probability): ++ (5%≤ ++ <25%) | CE: cognitive enhancer (SmartCube probability): + (LOQ≤ + <5%) | DP: anti-depressant (SmartCube probability): ++ (5%≤ ++ <25%) | MS: mood stabilizer (SmartCube probability): + (LOQ≤ + <5%) | PS: anti-psychotic (SmartCube probability): ++ (5%≤ ++ <25%) | SD: sedative hypnotic (SmartCube probability): +++ (25%≤ +++ <50%) | UN: uncharacterized CNS activity (SmartCube probability): + (LOQ≤ + <5%)

CNC[C@H]1OCCc2ccc3c(c21)OCC3 [Example 106, (S)-N-methyl-1-(2,3,6,9-tetrahydro-7H-furo[3,2-h]isochromen-9-yl)methanamine]
minimal effective dose [1]: 10 to 30 mg/kg | AD: ADHD (SmartCube probability): + (LOQ≤ + <5%) | AG: analgesic (SmartCube probability): + (LOQ≤ + <5%) | AX: anxiolytic (SmartCube probability): ++ (5%≤ ++ <25%) | CE: cognitive enhancer (SmartCube probability): +++ (25%≤ +++ <50%) | DP: anti-depressant (SmartCube probability): ++ (5%≤ ++ <25%) | MS: mood stabilizer (SmartCube probability): + (LOQ≤ + <5%) | PS: anti-psychotic (SmartCube probability): ++ (5%≤ ++ <25%) | SD: sedative hypnotic (SmartCube probability): ++ (5%≤ ++ <25%) | UN: uncharacterized CNS activity (SmartCube probability): + (LOQ≤ + <5%)
